Measured values from PubChem BioAssay AID179 (DTP/NCI, 2004).
Active and inactive are the calls of the source.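 Rule for the calls: active = compounds giving half or more protection of infected cells from virus-caused growth loss, again on retest; inactive = the rest.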 *1 amine or outer side, *2 acyl side, *3 side chain or, on linkers, in order; H or OH if unused. Where a SMILES comes first, the peptide text is derived from it. [ ]: non-standard residue; d: D form. The star is where a group is joined. X3 = CC(=O)N(C)SCC(N[*:1])C(=O)[*:2]; Cbz = O=C(OCc1ccccc1)*; Bn = c1ccc(C*)cc1; For = O=C*

Test system: CEM cells HIV-1 protection, formazan growth assay
Test: NCI AIDS Antiviral Assay
Details: for IC50: measured here: growth of uninfected CEM cells
In short: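 Human CEM cells, uninfected and HIV-1-infected, received five drug concentrations, and growth was read by soluble formazan assay. Compounds giving at least 50% protection were retested; reproducible 100% protection defined confirmed active.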

SMILES | EC50 [µM] | IC50 [µM] | outcome
Cc1cccc(NS(=O)(=O)c2ccc3c(c2)OCCOCCOCCOCCO3)c1 | > 200 | 158 | –
CCSc1c(S)cnn(C)c1=O | 23.4 | 30.9 | –
COc1cc(-c2cc(=O)c3c(O)c(OC)c(OC)c(OC)c3o2)cc(OC)c1OC | > 70.8 | > 70.8 | –
CC12CCC(C(Br)C1=O)C2(C)CS(=O)(=O)O (stereo not given) | > 200 | > 200 | –
CCCCC1(c2sccc2C(O)(C(F)F)C(F)(F)F)NC(C)(C)CO1 (stereo not given) | > 200 | 126 | –
CN=C1Nc2ccccc2C(=S)N2CSC[C@@H]12 | > 200 | > 200 | –
COc1ccc(N2C(=O)C3c4[nH]c5ccc(OCc6ccccc6)cc5c4C4CCC(C(C)(C)C)CC4C3C2=O)cc1 (stereo not given) | > 200 | 16.6 | –
CC(/C=C/C(O)=C1/C(=O)CNC1=O)=C\[C@@H](C)[C@H]1O[C@@]2(C)O[C@H](C(=O)[C@@H]3O[C@@]32C)[C@@H]1C | > 200 | 91.2 | –
O=C1C(=O)C(CN2CCOCC2)=C(N2CCOCC2)C(N2CCOCC2)=C1CN1CCOCC1 | > 200 | 77.6 | –
O=C(Nc1cccc(O)c1)C(=O)C(C(=O)c1ccc(Cl)c(Cl)c1)C1OC(=O)c2ccccc21 (stereo not given) | > 141 | 64.6 | –
CCOC(=O)NNC(=O)NCc1ccccc1CNC(=O)NNC(=O)OCC | > 200 | > 200 | –
CC(C)=CCc1c(-c2ccc(OC3OC(CO)C(O)C(O)C3O)cc2O)oc2c3c(cc(O)c2c1=O)OC(C)(C)C=C3 (stereo not given) | > 11.5 | > 11.5 | –
CNS(=O)(=O)NNS(=O)(=O)c1ccc(Br)cc1 | > 75.9 | > 75.9 | –
COc1cccc(-c2nc(-c3cnccn3)n(COCCO)n2)c1 | > 200 | > 200 | –
CC(=O)n1[nH]c(=O)n(-c2ccccc2)c1=O | > 200 | > 200 | –
COC(=O)c1c(O)c(C#N)c2[nH]c3ccccc3n2c1=O | > 100 | > 100 | –
O=[N+]([O-])c1ccc(C2=Cc3ccc4ccccc4[n+]3NC2)cc1 | > 50.1 | > 50.1 | –
COC(=O)CC12CC(CC(=O)O1)N(C(=O)Nc1ccccc1)O2 (stereo not given) | > 77.6 | > 77.6 | –
Cc1cccc2c(=O)c3cccc([C@H](C)C(=O)O)c3oc12 | > 200 | > 200 | –
COc1c(C)c(O)c2c(=O)cc(-c3ccccc3)oc2c1C | > 63.1 | > 63.1 | –
O=C(Nc1ccc(S(=O)(=O)N[C@@H](C(=O)O)c2ccccc2)cc1)c1ccc(F)cc1 | – | – | inactive

SMILES | EC50 [µM] | IC50 [µM] | outcome
O=S(=O)(/N=S(/Nc1ccccc1)C(F)(F)Cl)c1ccccc1 (stereo not given) | > 200 | > 200 | –
C1=CC2(C=C1)OC21CCC2(C=CC3(C2)OC3C2CCCCC2)CC1 (stereo not given) | > 200 | 51.3 | –
CC(=O)c1sc2c(c1OC(=O)c1ccccc1)c(=O)n(-c1ccccc1)c(=S)n2-c1ccccc1 | > 2 | 0.0631 | –
CC(C)(C)c1cc(Cc2ccc(S(C)(=O)=O)cc2)c(O)c(C(C)(C)C)c1 | – | – | inactive
[C-]#[O+].[C-]#[O+].[C-]#[O+].[Cr].c1ccc([PH+](CC[As](c2ccccc2)c2ccccc2)CC[As](c2ccccc2)c2ccccc2)cc1 | – | – | inactive
COc1ccc(/C(Cl)=C(\C#N)c2ccc(OC)c(OC)c2)cc1OC | > 200 | 58.9 | –
COc1ccc2c3c(cnc2c1)P(C)(=O)CC3 (stereo not given) | – | – | inactive
N#C/C(=C/N1C(=O)CC(=O)NC1=S)C(N)=O | > 200 | > 200 | –
Cc1cccc(C)c1Nc1nc(C)c(C(=O)CC(=O)C(=O)Nc2c(C(C)C)cccc2C(C)C)s1 | > 200 | > 200 | –
COC1CC(C)C(OC)C2=CC(=O)C=C(NC(=O)/C(C)=C/C=C\C(C)C(OC(N)=O)/C(C)=C\C(C)C1OC)C2=O (stereo not given) | > 2 | 0.204 | –
CC(=O)N(C)SCC(NC(=O)C(Cc1ccccc1)NC(=O)OCc1ccccc1)C(=O)NC(Cc1ccccc1)C(=O)NC(Cc1cn(C=O)c2ccccc12)C(=O)NC(CCCCNC(=O)OCc1ccccc1)C(=O)NC(C(=O)NC(CSN(C)C(C)=O)C(=O)NC(C(N)=O)C(C)OCc1ccccc1)C(C)OCc1ccccc1 (stereo not given) (Cbz-F[X3]FW(For)K(Cbz)T(Bn)[X3]T(Bn)-NH2; configuration not given here) | > 100 | > 100 | –
N#C[C@H](c1nc2ccccc2[nH]1)c1nc2ccccc2nc1Cl | > 200 | 11 | –
CN(C)CCC=C1c2ccccc2CCc2ccccc21 | > 200 | 34.7 | –
CC12OC3(C(O)C1O)C(C(=O)O[C@H]3CO[Si](C)(C)C(C)(C)C)C2S(=O)(=O)c1ccccc1 (stereo not given in full) | – | – | inactive
Cc1cccc(-c2nc3ccc([N+](=O)[O-])cc3c(=O)o2)c1 | > 200 | 30.9 | –
Clc1ccccc1C1SCc2nc3ccccc3n21 (stereo not given) | – | – | inactive
Cc1cccc2c1[C@]13OC(C)[C@]4(C)CC5OC(=O)[C@@]1(C)[C@@H]5[C@]34C(=O)O2 (stereo not given in full) | > 200 | > 200 | –
O=C(CSc1nnc(-c2ccc(Cl)cc2)s1)Nc1nccs1 | > 200 | > 200 | –
COC(=O)/C1=C/C2CC(/C=C(/c3ccccc3)C(=O)O1)C2 | – | – | inactive
COc1ccc(/C=C2/SC(c3c(O)ccc4ccccc34)N(NC(=O)CCCCCCCCC(=O)NN3C(=O)/C(=C\c4ccc(OC)c(OC)c4)SC3c3c(O)ccc4ccccc34)C2=O)cc1OC (stereo not given) | > 200 | 8.51 | –
